Measured values: US8933071B2, “Dimethyl fasudil for inducing polyploidization of megakaryocytes and for treating blood and bone marrow diseases and disorders” (Northwestern University, priority 2008, dated 2015)
Entries after “also recorded” stand apart in the source; their conditions may differ.

Assays:
[1] = system: CD41-cells (all other cell types); format: cell-based, human; conditions: ET patient bone marrow, 5 days
Protocol: (§4) Referring to FIG. 5, bone marrow mononuclear cells from a patient with ET were cultured with two doses of DMF for 10 days.
Mononuclear cells from bone marrow of patients were obtained by informed consent from patients at Northwestern Feinberg School of Medicine. Mononuclear cells were separated from marrow with Ficoll (GE Healthcare life sciences, Piscataway, N.J.) and resuspended in IMDM (Iscove's Modified Dulbecco's Media) media without serum. The cells were stained with 0.4% trypan blue solution for 5 minutes and live cells were counted. Live cells were assayed in CFU-MK (“Colony forming units-megakaryocytes”) and BFU-E (“Burst forming unit-erythroid”) assays as well as in liquid culture.
Liquid culture. Marrow cells from ET patients were also cultured in RPMI with 10% FBS in the presence of recombinant human TPO (thrombopoeitin, 50 ng/ml). […] After 5 days, the cells were collected and stained with APC (allophycocyanin) labeled anti-human CD41 antibody (BD Biosciences San Jose, Calif.). The cells were then stained overnight with 1 μg/mL 4′,6-diamidinio-2-phenylindole (DAPI). DNA content of both CD41+ cells and CD41-negative cells was analyzed by utilizing a BD LSRII flow cytometer (BD Biosciences San Jose, Calif.).

CMK cells = test: Polyploidization of CMK cells (DNA content); format: cell-based, human; conditions: CMK cells
Protocol: (§1) (A) Y10, (B) GIME, and (C) CMK cells were grown in the presence of TPO, SU6656, or vehicle (DMSO) for 72 hours. DNA content was measured by flow cytometry. The percentages of cells that reach a DNA content of ≧8N are boxed in A and C, those equal to 8N are boxed in B. D) CMK cells were grown as in (C), and cell numbers were enumerated at 0, 24, 48 and 72 h.
(§2) To study how megakaryocytes switch from a proliferative to endomitotic cell cycle, the Src kinase inhibitor SU6656 is being utilized.
In collaboration with the Broad Institute, a high throughput screen for small molecules was conducted to identify small molecules that preferentially induce polyploidization or differentiation of megakaryocytes. We screened 10,000 compounds from the Broad's extensive collection of small molecules (including known bioactives, kinase and HDAC inhibitors, and natural products) to identify inducers of megakaryocyte polyploidization. […] 6) Data were analyzed using both MetaXpress software and “Cell Profiler,” software designed at MIT and the Broad Institute. […]

GIME cells [2] = format: cell-based; conditions: 10 μM, 48 hours, DMSO 0.3%
Protocol: (§3) DNA content was then assessed by flow cytometry. Numbers above the bar indicate % of cells ≧8N. b) After 48 hours, GIME cells from a) were stained with anti-CD42 antibodies and the cell surface expression of CD42 was evaluated by flow cytometry.
In collaboration with the Broad Institute, a high throughput screen for small molecules was conducted to identify small molecules that preferentially induce polyploidization or differentiation of megakaryocytes. We screened 10,000 compounds from the Broad's extensive collection of small molecules (including known bioactives, kinase and HDAC inhibitors, and natural products) to identify inducers of megakaryocyte polyploidization. The screen was performed in the following manner: 1) 4,000 CMK (human megakaryocytic leukemia) cells were plated into each well of a 384-well plate, 2) 100 n1 of compounds (yielding a final concentration of 10 μM) were pinned into the wells, 3) plates were incubated at 37° C. for 72 hours, 4) cells were fixed and stained with Hoescht, and 5) plates were imaged using an ImageXpressMICRO high content imager with 20× objective. Nine images per well were collected. 6) Data were analyzed using both MetaXpress software and “Cell Profiler,” software designed at MIT and the Broad Institute. Seventy-two plates containing duplicates of nearly 10,000 small molecules were screened.

GIME cells [3] = test: Polyploidization of GIME cells (DNA content by flow cytometry); format: cell-based; conditions: GIME cells, 48 hours, DAPI, flow cytometry
Protocol: as §1, §3, §2

[4] = system: erythroid colonies in human MPD bone marrow cultures; format: cell-based; conditions: ET patient bone marrow, 14 days
Protocol: as §4
MPDs Patient Specimens. Mononuclear cells from bone marrow of patients were obtained by informed consent from patients at Northwestern Feinberg School of Medicine. Mononuclear cells were separated from marrow with Ficoll (GE Healthcare life sciences, Piscataway, N.J.) and resuspended in IMDM (Iscove's Modified Dulbecco's Media) media without serum. The cells were stained with 0.4% trypan blue solution for 5 minutes and live cells were counted. Live cells were assayed in CFU-MK (“Colony forming units-megakaryocytes”) and BFU-E (“Burst forming unit-erythroid”) assays as well as in liquid culture.
BFU-E (Burst forming unit-erythroid) assay. Live ET bone marrow cells were added to MethoCult media (4436, StemCell Technologies, Vancouver, BC, Canada) with recombinant human EPO (erythropoeitin, 3 U/mL), recombinant human SCF (stem cell factor, 50 ng/mL), recombinant human GM-CSF (granulocyte macrophage colony-stimulating factor, 10 ng/mL) and recombinant human IL-3 (10 ng/mL). […] Cells were plated in duplicate in 35 mm culture dishes according the manufacturer's protocol. On the 14th day, red colonies composed of hemoglobinized erythroblasts were identified and scored.

[5] = system: 6133/MPL megakaryocytic leukemia cells; test: 6133/MPL transplant model of AMKL, pre-treatment of cells; format: in vivo, C57B1/6 mice
From the text: FIG. 9 illustrates that DMF blocks the development of AMKL in vivo. a) Histology of spleens from control and 6133/MPL transplanted mice at 20 days. b) Survival analysis of the effect of DMF pre-treatment on AMKL development in recipient mice. p<0.0005 (Log rank test). N=6 mice (vehicle (DMSO) pre-treatment) or N=7 (DMF pre-treatment) per group.
To determine whether polyploidization-inducing agents can serve as new therapies for AMKL, we established an AMKL animal model. We developed an animal model of AMKL by transplanting 6133/MPL megakaryocytic leukemia cells (35) into sub-lethally irradiated recipient C57B1/6 mice. The parental 6133 cell line, which is dependent upon TPO for survival, was derived from a leukemic mouse that expressed the AMKL t(1:22) fusion protein OTT-MAL by knock-in gene targeting. 6133 cells were then transduced with a MPLW515L expressing retrovirus, and stable TPO-independent clones were isolated. We discovered that C57B1/6 mice transplanted with 1 million 6133/MPL cells developed a fulminant AMKL within 21 days. The disease was characterized by massive infiltration of CD41+ cells in the bone marrow and spleen. These mice will be utilized as animal models to quantify the effect of small molecule inducers of polyploidization on disease progression in vivo.
To determine whether polyploidization-inducing agents can serve as new therapies for AMKL, DMF was assessed in an animal model for AMKL. To this end, an animal model of AMKL was developed by transplanting 6133/MPL megakaryocytic leukemia cells into sub-lethally irradiated recipient C57B1/6 mice. The parental 6133 cell line, which is dependent upon TPO for survival, was derived from a leukemic mouse that expressed the AMKL t(1:22) fusion protein OTT-MAL by knock-in gene targeting (35). […]
C57BL/6 mice (purchased from the Jackson Laboratory, Bar Harbor, Me.) were sub-lethally irradiated with 600 rads. […] Development of disease was assessed with presence of GFP-positive cells in the peripheral blood by FACS and by monitoring the health and body weight of the animals. […]

dimethylfasudil [DMF]
effect on CD41-cells (all other cell types) [1]: no effect | induction of polyploidization (CMK cells): potent inducer of polyploidization | expression of the late megakaryocyte marker CD42 (GIME cells [2]): 66.3% | induction of polyploidization (GIME cells [3]): potent inducers | induction of polyploidization (GIME cells [3]; listed as Rho-kinase inhibitor): potent inducer of polyploidization | formation of aberrant erythroid colonies [4]: potently blocked formation | development/progression of AMKL in recipient mice ([5]; 6133/MPL cells pre-treated with 5 μM for 24 hours before transplant): interfered with their ability to cause a tumor; also recorded: striking and significant delay in progression of AMKL | time mice healthy with no signs of disease ([5]; all mice implanted with cells pre-treated with 5 μM for 24 hours): at least 200 days | survival analysis p (Log rank test) ([5]; pre-treatment vs vehicle (DMSO) pre-treatment): < 0.0005
